How the values were obtained:
[1] = test system: subjects with Acute Migraines; assay: Pooled liver function test profile, Study 301 and Study 302; type: in vivo, human
Procedure: (§1) In a double-blind, randomized, placebo-controlled, multicenter study (Study 301, NCT03235479) adults≥18 years of age with at least a 1-year history of ICHD 3-beta migraine were eligible to participate. Following a 3- to 28-day screening period, subjects were randomized to receive rimegepant 75 mg or matching placebo and instructed to treat a single migraine attack with 1 dose of the blinded study drug (rimegepant or placebo) when headache pain reached moderate or severe intensity. The coprimary endpoints were pain freedom at 2 hours postdose and freedom from the most bothersome symptom (MBS) at 2 hours postdose. Safety assessments included adverse events (AEs), ECGs, vital signs, physical measurements, and routine laboratory tests, including assessment of liver function. Unless stated otherwise, values presented are mean±SD.
as §1, with “302, NCT03237845)” for “301, NCT03235479)”

[2] = test system: subjects with Acute Migraines; assay: Study 301 (BHV3000-301, NCT03235479): Phase 3 double-blind placebo-controlled trial, rimegepant 75 mg tablet, acute treatment of migraine; type: in vivo, human; details: for Freedom from MBS at 2 hours / Pain Freedom (pain-free) at 2 hours: N = 543
Procedure: Clinical Trial—BHV3000-301: Phase 3: Double-Blind, Randomized, Placebo-Controlled, Safety and Efficacy Trial of BHV-3000 (Rimegepant) for the Acute Treatment of Migraine (ClinicalTrials.gov Identifier: NCT03235479). A phase 3 clinical study was conducted with 1490 participants, as follows. The purpose of this study was to compare the efficacy of BHV-3000 (rimegepant) versus placebo in subjects with Acute Migraines Study Design • Study Type: Interventional (Clinical Trial) • Actual Enrollment: 1490 participants • Allocation: Randomized • Intervention Model: Parallel Assignment • Intervention Model Description: Double-blind to Sponsor, Investigator and Subject Randomized Controlled Trial • Masking: Triple (Participant, Care Provider, Investigator) • Masking Description: Double-blind to Sponsor, Investigator and Subject • Primary Purpose: Treatment • Official Title: BHV3000-301: Phase 3: Double-Blind, Randomized, Placebo-Controlled, Safety and Efficacy Trial of BHV-3000 (Rimegepant) for the Acute Treatment of Migraine Arms and Interventions Outcome Measures Primary Outcome Measures: • 1. Pain freedom of rimegepant (75 mg tablet) compared with placebo in the acute treatment of migraine will be measured using the number of evaluable subjects that report no pain at 2 hours post-dose. [Time Frame: Two hours post dose] • Pain will be measured on a 4 point Likert scale (0=none, 1=mild, 2=moderate, 3=severe) • 2. Freedom from the most bothersome symptom (MBS) of rimegepant (75 mg tablet) compared with placebo will be measured using the number of evaluable subjects that report the absence of their MBS at 2 hours post-dose. [Time Frame: Two hours post dose] • The MBS (nausea, phonophobia or photophobia) will measured using a binary scale (0=absent, 1=present). Secondary Outcome Measures: • 1. […] [Time Frame: 2 hours-24 hours post-dose] • Sustained Pain Freedom as measured by a 4 point numeric rating scale (None, Mild, Moderate, Severe) • 2. The difference between rimegepant (75 mg tablet) compared to placebo by tabulating the absence of photophobia at 2 hours post-dose in the subset of subjects that reported the presence of photophobia at headache baseline. [Time Frame: 2 hours post-dose] • Photophobia • 3. To evaluate rimegepant (75 mg tablet) compared to placebo by tabulating the number of subjects that report the absence of phonophobia at 2 hours post-dose in the subset of subjects that reported the presence of phonophobia at headache baseline. [Time Frame: 2 hours post-dose] • Phonophobia • 4. To measure the difference between rimegepant (75 mg tablet) compared to placebo on Pain Relief, at 2 hours post-dose, for those that report a pain level of moderate or severe at baseline and then report a pain level of none or mild. [Time Frame: 2 hours post-dose] • Pain Relief as measured by a 4 point numeric rating scale (None, Mild, Moderate, Severe) • 5. Freedom from Nausea by tabulating the number of subjects that report the absence of nausea at 2 hours post-dose in the subset of subjects that reported the presence of nausea at headache baseline. [Time Frame: 2 hours post-dose] • Freedom from Nausea • 6. The difference between rimegepant (75 mg tablet) compared to placebo on the probability of requiring rescue medication using the number of subjects that take rescue medication within […] administration of study medication (BHV3000 or placebo). [Time Frame: up to 24 hours post-dose] • Requiring Rescue Medication • 7. […] [Time Frame: 2 hours-24 hours post-dose] • Sustained Pain Freedom • 8. […] [Time Frame: 2 hours-24 hours post-dose] • Sustained Pain Relief as measured by a 4 point numeric rating scale (None, Mild, Moderate, Severe) • 9. […] [Time Frame: 2 hours-48 hours post-dose] • Sustained Pain Relief as measured by a 4 point numeric rating scale (None, Mild, Moderate, Severe) • 10. […]

[3] = pooled Study 301 and 302, n = 1089
[4] = Study 301, single 75 mg tablet, listed as rimegepant

bilirubin elevations >2 times ULN ([2]; Study 301): No bilirubin elevations
transaminase level >5 times ULN ([2]; Study 301): no subject
transaminase level >3 times ULN ([2]; Study 301, one subject): 0.2%
SMILES: N[C@@H]1c2cccnc2[C@H](OC(=O)N2CCC(n3c(=O)[nH]c4ncccc43)CC2)CC[C@H]1c1cccc(F)c1F [Rimegepant, [(5S,6S,9R)-5-amino-6-(2,3-difluorophenyl)-6,7,8,9-tetrahydro-5H-cyclohepta[b]pyridin-9-yl] 4-(2-oxo-3H-imidazo[4,5-b]pyridin-1-yl)piperidine-1-carboxylate]
Pooled Liver Function Test profile versus placebo ([1]; Study 301 and Study 302): Rimegepant was Similar to Placebo in Both Studies
bilirubin elevations > 2 × ULN ([1]; across both Studies 301 and 302): *No bilirubin elevations > 2 × ULN across both Studies 301 and 302
ALT >3 × ULN, number of subjects [1, 3]: 1
ALT >3 × ULN, percent of subjects [1, 3]: 0.1%
ALT >5 × ULN, number of subjects [1, 3]: 0
ALT >10 × ULN, number of subjects [1, 3]: 0
ALT >20 × ULN, number of subjects [1, 3]: 0
ALT >ULN, number of subjects [1, 3]: 22
ALT >ULN, percent of subjects [1, 3]: 2.0%
AST >3 × ULN, number of subjects [1, 3]: 1
AST >3 × ULN, percent of subjects [1, 3]: 0.1%
AST >5 × ULN, number of subjects [1, 3]: 0
AST >10 × ULN, number of subjects [1, 3]: 0
AST >20 × ULN, number of subjects [1, 3]: 0
AST >ULN, number of subjects [1, 3]: 12
AST >ULN, percent of subjects [1, 3]: 1.1%
SAEs related to the study drug ([2]; Study 301): No SAE
AE dizziness ([2]; Study 301, 4/546): 0.7%
AE nausea ([2]; Study 301, 5/546): 0.9%
Serum ALT or AST levels greater than ULN ([2]; Study 301, 11/546): 2.0%
functional disability: patients achieving normal function at 2 hours versus placebo ([2]; Study 301, P<0.0001): greater proportion
Serious AEs (SAEs) ([2]; Study 301, n=2): 0.4%
Free from MBS at 2 hours, subjects [n/N] ([2]; Study 301, single 75 mg tablet): [199/543]
Nausea-free at 2 hours ([2]; Study 301, single 75 mg tablet): 46.9%
Nausea-free at 2 hours, subjects [n/N] ([2]; Study 301, single 75 mg tablet): [149/318]
Pain relief at 2 hours ([2]; Study 301, single 75 mg tablet): 56.0%
Pain relief at 2 hours, subjects [n/N] ([2]; Study 301, single 75 mg tablet): [304/543]
Pain-free at 2 hours, subjects [n/N] ([2]; Study 301, single 75 mg tablet): [104/543]
Phonophobia-free at 2 hours ([2]; Study 301, single 75 mg tablet): 38.6%
Phonophobia-free at 2 hours, subjects [n/N] ([2]; Study 301, single 75 mg tablet): [133/345]
Photophobia-free at 2 hours ([2]; Study 301, single 75 mg tablet): 34.9%
Photophobia-free at 2 hours, subjects [n/N] ([2]; Study 301, single 75 mg tablet): [164/470]
Sustained pain relief, 2-24 hours ([2]; Study 301, single 75 mg tablet): 38.9%
Sustained pain relief, 2-24 hours, subjects [n/N] ([2]; Study 301, single 75 mg tablet): [211/543]
Freedom from MBS at 2 hours ([2]; Study 301, single 75 mg tablet): 36.6%
Pain Freedom (pain-free) at 2 hours ([2]; Study 301, single 75 mg tablet): 19.2%
Freedom from MBS at 2 hours [2, 4]: 36.6%
Pain Freedom (pain-free) at 2 hours [2, 4]: 19.2%
Pain relief at 2 hours [2, 4]: 56.0%
sustained pain relief from 2 through 48 hours postdose versus placebo ([2]; Study 301, single dose, no rescue medication, P=0.0003): superiority versus placebo
sustained pain freedom from 2 through 48 hours postdose versus placebo ([2]; Study 301, single dose, no rescue medication, P=0.013): superiority versus placebo

From US11083724B2, “Rimegepant for CGRP related disorders” (Biohaven Pharmaceutical Holding Company Ltd., priority 2018, dated 2021)
